Source: patent publication US7118895B2, “Process for producing aglycon by using diglycosidase and flavor-improved food containing the aglycon and converting agent to be used in the process” (Amano Enzyme Inc., priority 2000, dated 2006)

System: Crude diglycosidase
Experiment: Examination of substrate concentration in the conversion into isoflavone aglycons by diglycosidase using soybean materials;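 also: percent of the isoflavone family total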
Type: biochemical, Penicillium multicolor IAM7153
Conditions: concentrated soybean protein
Experimental: Into 20 mM acetate buffer of pH 4.0 was suspended 0.1 g, 0.25 g, 0.5 g, 1.0 g, or 1.5 g of each of various soybean materials (roasted soy flour (manufactured by Fuji Shokuryo K.K.), soymilk (manufactured by Gitoh Shokuhin K.K.), defatted soybean (manufactured by Fuji Seiyu K.K.), concentrated soybean protein (manufactured by Fuji Seiyu K.K.)). The pH of the suspension was measured and the liquid volume was adjusted to 4.5 mL while the pH was adjusted to 4.0 with 1N hydrochloric acid. An enzyme solution wherein diglycosidase activity of crude diglycosidase was adjusted to 1.88 AU/mL was added thereto in an amount of 0.5 mL, whereby the final liquid volume was 5.0 mL. Namely, the ratio of the soybean material in the reaction mixture was 2%, 5%, 10%, 20%, or 30% (w/v). The whole was reacted at 55° C. under shaking. To 5 mL of the reaction mixture was added 7 mL of ethanol after 0, 1, 3, and 6 hours of the reaction. After ultrasonication, the mixture was thoroughly mixed. It was subjected to centrifugal separation at 2,000 rpm and room temperature for 5 minutes. Then, […] of the supernatant was placed in a 1.5 mL microtube and was subjected to centrifugal separation at 15,000 rpm and 4° C. for 10 minutes. The supernatant was filtered through a filter and each sample was suitably diluted by a factor of 1 to 6 depending on the substrate concentration. Fifty μL of the diluted solution was analyzed by HLPC (Tables 27 to 38).

Decomposition efficiency: ratio of each glycoside/aglycon within its isoflavone family (substrate concentration 2%, heat treatment of enzyme no, reaction time 0 h): not detected
Decomposition efficiency: ratio of each glycoside/aglycon within its isoflavone family (substrate concentration 2%, heat treatment of enzyme no, reaction time 1 h): not detected
Decomposition efficiency: ratio of each glycoside/aglycon within its isoflavone family (substrate concentration 2%, heat treatment of enzyme no, reaction time 3 h): not detected
Decomposition efficiency: ratio of each glycoside/aglycon within its isoflavone family (substrate concentration 2%, heat treatment of enzyme no, reaction time 6 h): not detected
Decomposition efficiency: ratio of each glycoside/aglycon within its isoflavone family (substrate concentration 2%, heat treatment of enzyme yes, reaction time 6 h): not detected
Decomposition efficiency: ratio of each glycoside/aglycon within its isoflavone family (substrate concentration 5%, heat treatment of enzyme no, reaction time 0 h): not detected
Decomposition efficiency: ratio of each glycoside/aglycon within its isoflavone family (substrate concentration 5%, heat treatment of enzyme no, reaction time 1 h): not detected
Decomposition efficiency: ratio of each glycoside/aglycon within its isoflavone family (substrate concentration 5%, heat treatment of enzyme no, reaction time 3 h): not detected
Decomposition efficiency: ratio of each glycoside/aglycon within its isoflavone family (substrate concentration 5%, heat treatment of enzyme no, reaction time 6 h): not detected
Decomposition efficiency: ratio of each glycoside/aglycon within its isoflavone family (substrate concentration 5%, heat treatment of enzyme yes, reaction time 6 h): not detected
Decomposition efficiency: ratio of each glycoside/aglycon within its isoflavone family (substrate concentration 10%, heat treatment of enzyme no, reaction time 0 h): not detected
Decomposition efficiency: ratio of each glycoside/aglycon within its isoflavone family (substrate concentration 10%, heat treatment of enzyme no, reaction time 1 h): not detected
Decomposition efficiency: ratio of each glycoside/aglycon within its isoflavone family (substrate concentration 10%, heat treatment of enzyme no, reaction time 3 h): not detected
Decomposition efficiency: ratio of each glycoside/aglycon within its isoflavone family (substrate concentration 10%, heat treatment of enzyme no, reaction time 6 h): not detected
Decomposition efficiency: ratio of each glycoside/aglycon within its isoflavone family (substrate concentration 10%, heat treatment of enzyme yes, reaction time 6 h): not detected
Decomposition efficiency: ratio of each glycoside/aglycon within its isoflavone family (substrate concentration 20%, heat treatment of enzyme no, reaction time 0 h): not detected
Decomposition efficiency: ratio of each glycoside/aglycon within its isoflavone family (substrate concentration 20%, heat treatment of enzyme no, reaction time 1 h): not detected
Decomposition efficiency: ratio of each glycoside/aglycon within its isoflavone family (substrate concentration 20%, heat treatment of enzyme no, reaction time 3 h): not detected
Decomposition efficiency: ratio of each glycoside/aglycon within its isoflavone family (substrate concentration 20%, heat treatment of enzyme no, reaction time 6 h): not detected
Decomposition efficiency: ratio of each glycoside/aglycon within its isoflavone family (substrate concentration 20%, heat treatment of enzyme yes, reaction time 6 h): not detected
Decomposition efficiency: ratio of each glycoside/aglycon within its isoflavone family (substrate concentration 30%, heat treatment of enzyme no, reaction time 0 h): not detected
Decomposition efficiency: ratio of each glycoside/aglycon within its isoflavone family (substrate concentration 30%, heat treatment of enzyme no, reaction time 1 h): not detected
Decomposition efficiency: ratio of each glycoside/aglycon within its isoflavone family (substrate concentration 30%, heat treatment of enzyme no, reaction time 3 h): not detected
Decomposition efficiency: ratio of each glycoside/aglycon within its isoflavone family (substrate concentration 30%, heat treatment of enzyme no, reaction time 6 h): not detected
Decomposition efficiency: ratio of each glycoside/aglycon within its isoflavone family (substrate concentration 30%, heat treatment of enzyme yes, reaction time 6 h): not detected
Compound: O=C(O)CC(=O)OC[C@H]1O[C@@H](Oc2ccc3c(=O)c(-c4ccc(O)cc4)coc3c2)[C@H](O)[C@@H](O)[C@@H]1O [malonydaidzin]
